Measurements as given in patent US11471417B2 (Small Pharma Ltd, priority 2020, dated 2022).

Legend:
[1] = In vitro human mitochondrial fraction intrinsic clearance of SPL026 and SPL028 analogues; details: for microsomal CLint: Intrinsic Clearance
[2] = In vitro human mitochondrial fraction intrinsic clearance of SPL026 with/without MAO-A and MAO-B inhibitors; assay type: in vitro ADME; details: for half-life / microsomal CLint: 0.5 mg/mL human liver mitochondrial fraction
[3] = test system: Human (mixed gender) hepatocytes; test: In vitro intrinsic clearance in human hepatocytes with and without MAO inhibitors (first experiment); details: for Half-life % change / Intrinsic clearance % change: with MAO inhibitors vs no inhibitors
[4] = as above; details: both, human, hepatocytes (pooled, 10 donors), human hepatocytes
[5] = In vitro intrinsic clearance in human hepatocytes, D2, D6 and D8 DMT (third experiment); details: both, hepatocytes (pooled, 10 donors)
[6] = 0.5 mg/mL human liver mitochondrial fraction, first experiment r7-r12, repeat r13-r20
[7] = human, liver mitochondrial fraction, Half-Life R1, human liver mitochondrial fraction, replicate R1
[8] = human, liver mitochondrial fraction, Half-Life R2, human liver mitochondrial fraction, replicate R2
[9] = human, liver mitochondrial fraction, Half-Life R3, human liver mitochondrial fraction, replicate R3
[10] = human, liver mitochondrial fraction, Half-Life R4, human liver mitochondrial fraction, replicate R4
[11] = human, liver mitochondrial fraction, 0.5 mg/mL human liver mitochondrial fraction, first experiment r7-r12, repeat r13-r20
[12] = with 100 nM clorgyline (MAO-A inhibitor), Clorgyline (MAO-A inhibitor) 100 nM
[13] = Half-life Without inhibitors, without MAO-A/B inhibitor combination (Table 5)
[14] = Intrinsic clearance With inhibitors, with MAO-A/B inhibitor combination (Table 5)
[15] = Intrinsic clearance Without inhibitors, without MAO-A/B inhibitor combination (Table 5)
[16] = in vitro half-life Without inhibitors, 5 μM, without MAO inhibitors (Table 4)
[17] = human, liver mitochondrial fraction, Half-life, 0.5 mg/mL human liver mitochondrial fraction, first experiment r7-r12, repeat r13-r20
[18] = human hepatocytes, MAO inhibitors vs none
[19] = Half-life With inhibitors, with MAO-A/B inhibitor combination (Table 5)
[20] = in vitro half-life With inhibitors, 5 μM, with 100 nM clorgyline and 100 nM Deprenyl/Selegiline (Table 4)
[21] = with 100 nM Deprenyl/Selegiline (MAO-B inhibitor), Deprenyl (MAO-B inhibitor) 100 nM

SMILES | Intrinsic Clearance [1, 6] [μL/min/mg protein] | half-life [1, 7] [min] | half-life [1, 8] [min] | half-life [1, 9] [min] | half-life [1, 10] [min] | microsomal CLint [1, 11] [µL/min/mg] | half-life ([2]; DMSO Vehicle (no inhibitor)) [min] | microsomal CLint ([2]; DMSO Vehicle (no inhibitor)) [µL/min/mg] | Half-life % change ([3]; human hepatocytes) [%] | Intrinsic clearance % change ([3]; human hepatocytes) [%] | half-life at 5 μM [4, 13] [min] | hepatocyte CLint at 5 μM [4, 14] [µL/min/1e6 cells] | hepatocyte CLint at 5 μM [4, 15] [µL/min/1e6 cells] | half-life at 5 μM [4, 16] [min] | half-life [1, 6] [min] | half-life [1, 17] [min] | half-life at 5 μM [5] [min] | hepatocyte CLint at 5 μM [5] [µL/min/1e6 cells] | half-life at 5 μM [4, 19] [min] | half-life at 5 μM [4, 20] [min] | further results
NCCc1c[nH]c2ccc(O)cc12 [Serotonin] | 157.0 | 9.3 | 9.1 | 9.1 | 8.5 | 151 | 11.1 | 125 | 73.75 | −282.18 | 33 | 10.1 | 38.6 | 33 | – | – | – | – | – | – | half-life [2, 12]: > 420 min; microsomal CLint [2, 12]: < 3.3 µL/min/mg
[2H]C([2H])(Cc1c[nH]c2ccccc12)N(C)C [SPL028i, α,α-dideutero-N,N-dimethyltryptamine] | – | 86.1 | 99.4 | 82.6 | 72.1 | – | – | – | −5.33 | 4.67 | – | 7.5 | 7.15 | – | 92.8 | 77.3 | 233 | 8.3 | 170 | 170 | quicker intrinsic clearance in the presence of MAO inhibitors [3, 18]: ~5%; change in intrinsic clearance and half-life compared to SPL026 ([3]; initial human hepatocyte studies): ~2 fold
[2H]C([2H])([2H])N(C([2H])([2H])[2H])C([2H])([2H])Cc1c[nH]c2ccccc12 [SPL028viii, α,α-dideutero-N,N-bis(trideutero)dimethyltryptamine] | 12.7 | – | – | 92.9 | – | 10.9 | – | – | – | – | – | – | – | – | 112.2 | – | – | – | – | – | increase in metabolic stability ([1]; human mitochondrial fraction assays): 14 fold
O=C(O)Cc1ccccc1Nc1c(Cl)cccc1Cl [Diclofenac] | – | – | – | – | – | – | – | – | – | – | – | – | – | – | – | – | 20.7 | 92.5 | – | – | –
NCc1ccccc1 [Benzylamine] | 62.1 | 24.3 | 22.1 | 21.2 | 23.5 | 60 | 30.4 | 45.7 | >83.41 | <−450 | 76.3 | < 3 | 16.7 | 76.3 | – | – | – | – | 460 | 460 | half-life [2, 21]: > 420 min; microsomal CLint [2, 21]: < 3.3 µL/min/mg
COc1ccc([C@@H]2Sc3ccccc3N(CCN(C)C)C(=O)[C@@H]2OC(C)=O)cc1 [Diltiazem] | – | – | – | – | – | – | – | – | – | – | – | – | – | – | – | – | 87.3 | 22 | – | – | –
[2H]C([2H])([2H])N(CCc1c[nH]c2ccccc12)C([2H])([2H])[2H] [SPL028vii, N,N-bis(trideutero)dimethyltryptamine] | – | – | – | 9.4 | 10.9 | 137 | – | – | – | – | – | – | – | – | – | 10.2 | – | – | – | – | –
CN(C)CCc1c[nH]c2ccccc12 [SPL026, N,N-dimethyltryptamine] | 161.0 | 8.8 | 8.4 | 7.6 | 8.3 | 175 | 33.7 | 42.9 | 3.82 | −4.00 | 92.4 | 13.2 | 13.8 | 92.4 | 8.6 | 7.9 | 98.9 | 19.4 | 96.1 | 96.1 | increase in intrinsic clearance with MAO-A inhibitor (Clorgyline) compared to SPL026 without MAO inhibitors ([2]; human liver mitochondrial fraction): 10 fold; half-life [2, 21]: 32.5 min; microsomal CLint [2, 21]: 42.7 µL/min/mg; half-life [2, 12]: > 374 min; microsomal CLint [2, 12]: < 3.9 µL/min/mg; slower intrinsic clearance with inclusion of MAO inhibitors [3, 18]: ~4%
